According to PMC11215077, “Antiviral activity of temporin-1CEb analogues against gingival infection with herpes simplex virus type 1” (Frontiers in Oral Health, 2024):
≈ marks a conversion by molar mass, not a printed value. Read-outs that look alike come from different tables or passages of the source. Square brackets hold non-standard residues; d marks the D form. Peptide text beside a SMILES is read from it. AEEA = NCCOCCOCC(=O)O

Columns and labels:
HSV-1 [1] = test system: HSV-1; design: method as in PMID 29483113; details: different model of epithelial cells; cited from earlier work
From the text: In our studies, we initially utilized the Vero E6 cell line, which has been a long-standing choice in herpesviruses research ([40], [41]).

HSV-1 [2] = details: concentration reducing viral replication by 50%; TIGKs cells pre-treated, infected and cultivated with compound; qPCR; mean of two independent experiments
Experimental: Data were expressed as means ± SD. Statistical significance was determined using unpaired t-test, one-way ANOVA, and/or two-way ANOVA for direct comparisons between single groups. A p-value <0.05 was considered statistically significant. We used GrapPad Prism 10 software for the analyses. […]

HSV-1 [3] = assay: Virus inhibition (replication) assay in Vero E6 and TIGKs cells, qPCR, titration, gB Western blot; type: cell-based, herpes simplex virus type 1; details: 48 h p.i.
Experimental: HSV-1 stocks were generated by infecting Vero E6 cells. Cells were lysed at 48 h p.i. by two freeze-thaw cycles. The virus containing fluid was aliquoted and stored at −80°C. A control Vero E6 cell lysate from mock-infected cells was prepared in the same manner as the virus stock. Virus yield was assessed by virus titration on fully confluent Vero E6 cells in 96-well plates, according to the method of Reed & Muench ([32]). Plates were incubated at 37°C for 48 h and the occurrence of a cytopathic effect was scored using an inverted microscope, and TCID50 (50% tissue culture infection dose) was calculated.
Vero E6 or TIGKs cells were seeded in 12-well plates and cultured for 48 h. […] After 30 min of incubation at 37°C, cells were infected with HSV-1 at TCID50 400 /ml or treated with mock. After 2 h of infection at 37°C, unbound viral particles were removed by washing with PBS, and culture media supplemented with peptide conjugates were applied. Following 48 h of incubation, media were collected, and the quantity of HSV-1 DNA copies was assessed using titration and qPCR.
(§1) Viral DNA was isolated from the conditioned media or the apical washes of inserts (OTG model) using Viral DNA/RNA Isolation Kit (A&A Biotechnology). The virus yield assessed by quantitative real-time PCR (qPCR). The reaction was carried out in a CFX96 Touch Real-Time PCR Detection System (Bio-Rad), in a 10 μl reaction mixture consisting of TaqMan^TM Fast Advanced Master Mix, TaqMan^TM Microbe Detection assay against HSV-1 (Vi04230116_s1) and 1 μl of viral DNA. The temperature profile was 10 s at 95°C, followed by 40 cycles of 3 s at 95°C and 20 s at 60°C. DNA quantification standards were prepared. In summary, a fragment of viral DNA was amplified using the primers listed above and cloned into the pTZ57R/T plasmid using the InsTAclone PCR cloning kit. The plasmid was propagated in E. coli, purified with the GeneJet Plasmid Miniprep Kit, and digested with the EcoR1 restriction enzyme. The number of copies per mL was estimated after the concentration of linearized DNA was assessed spectrophotometrically.
Protein extracts were prepared using lysis buffer (0.25% Na-deoxycholate, 0.5% Nonidet P-40, 0.05% SDS, protease inhibitor mixture, 2.5 mM EDTA in PBS), and the protein concentration was assessed using Pierce BCA (Thermo Fisher) protein assay kit. Equal amounts of cell extracts were separated on 10% SDS-PAGE gel and electrotransferred onto polyvinylidene difluoride membranes for gB and β-actin in transfer buffer (25 mM Tris, 0.2 M glycine, and 20% ethanol) for 90 min at 100 V. Nonspecific binding sites were blocked for 90 min in 5% skimmed milk prepared in TBST buffer (20 mM Tris, pH 7.5, 0.5 M NaCl, 0.05% Tween 20). Membranes were further incubated overnight at 4°C with primary antibodies: mouse anti-HSV-1 + HSV-2 gB (1:5000; abcam) and mouse anti-β-actin (1:4,000; BD Biosciences). The following day, membranes were washed three times with TBST buffer and incubated with HRP-conjugated secondary antibodies for 60 min at 37°C: goat anti-mouse IgG (1:20,000; β-actin; BD Bioscience) or sheep anti-mouse IgG (1:50,000; gB; Sigma Aldrich). Next, blots were washed five times for 5 min in TBST buffer, developed using Luminata Cresecendo Substarte (Merck) and exposed to AGFA medical x-ray film. Densitometry analysis was performed using ImageJ 1.52q software.

[4] = Analytical RP-HPLC retention time; details: Phenomenex Jupiter 4 μ Proteo 90 Å, 250 × 4.60 mm, listed as basic physicochemical characteristic
Experimental: The synthesized compounds were then purified by reverse-phase high-performance liquid chromatography (RP-HPLC) on a Waters system (Phenomenex Jupiter 4 μ Proteo 90 Å column, 250 × 10 mm). A linear gradient from 10% to 80% of solvent B over 60 min (Solvent A: 0.1% TFA in water; Solvent B: 80% acetonitrile in Solvent A) was employed with a flow rate 5 ml/min. The homogeneity of the final peptide fractions was analyzed using a Shimadzu HPLC System (Shimadzu Europe GmbH, Duisburg, Germany) equipped with a Phenomenex Jupiter 4 μ Proteo 90 Å column, 250 × 4.60 mm. The mass spectra of the synthesized peptides were recorded using a Biflex III MALDI-TOF mass spectrometry (Bruker, Mannheim, Germany) with α-cyano-4-hydroxy-cinnamic acid (CCA) or 2,5-dihydroxybenzoic acid (DHB) used as the matrix.

HSV-1 [5] = assay: Antiviral activity in 3D organotypic model of human gingiva (OTG); type: cell-based, herpes simplex virus type 1; details: 15 μg/ml; H&E stained sections; Figure 5A
Experimental: Protocol was described previously ([34]). Briefly, to prepare 3D cultures, 150,000 gingival fibroblasts suspended in 10% FBS in DMEM were mixed with 2.4 ml of ice-cold Matrigel® (Corning) (final concentration 7 mg/ml) and placed in the middle of 12-well cell culture inserts (Greiner). Three days later, 1 × 10^6 TIGK cells suspended in EPM1 were added to the top of the insert. On the ninth day after the start of the procedure, the old culture medium was removed and EPM2 was added to the bottom of the insert. The epithelial layer on the top was exposed to the air, which promotes epithelial differentiation and then stratification. About 8–10 days after air-liquid interphase, 3D cultures of gingiva were used for further experiments.
The apical surface of OTG model was washed three times with PBS and then inoculated with 100 μl of viral stock (TCID50 400 /ml) in the presence of DAL-PEG-LK6 or CPP1-PEG-LK6 (15 μg/ml) for 2 h at 4°C. Following incubation, the unbound HSV-1 was removed by washing with PBS for 10 min at 37°C, and the OTG cultures were maintained at an air-liquid interface for the rest of the experiment. To determine viral yield, 120 μl of PBS was applied to the apical surface of the OTG, and harvested for DNA isolation after 10 min of incubation at 37°C.
Briefly, cell inserts were fixed in 10% formaldehyde at 4°C for 1 h. After embedding in paraffin, 3D cultures were cut into 5 μm sections and stained with H&E solution. For immunohistochemical analysis, slides were incubated for 1 h at room temperature in blocking buffer (5% normal goat serum, 0.1% saponin in PBS) and stained with primary antibodies anti-HSV-1 (1:100, 1% normal goat serum, 0.1% saponin in PBS; Abcam) and secondary antibodies: goat anti-rabbit conjugated with Alexa Fluor 488 (1:2000; Cell Signaling). Finally, cell nuclei were stained with ProLong Antifade Mounting Medium with DAPI. Slides were visualized with EVOS FL Cell Imaging System (Thermo Fisher Scientific).
as §1

Experimental for in vitro: The viability of Vero E6 and TIGKs cells was examined by the XTT Cell Viability Assay kit (Biological Industries, USA). Briefly, cells were treated with indicated concentrations of the peptide conjugates for 48 h at 37°C. Next, the fresh medium was added to the cells and 50 μl of the activated XTT reagent [2,3-bis(2-methoxy-4-nitro-5-sulphenyl)-2H-tetrazolium-5-carboxanilide] was added and further incubated for 2 h at 37°C. Absorbance was measured at a wavelength of 480 nm using FlexStation 3 microplate reader (Molecular Device, Wokingham, UK). The results were expressed normalized against a control of untreated cells (100% viability). To assess the effect of peptide conjugate on the integrity of the plasma membrane, the LDH release assay was performed using the CytoTox96 nonradioactive cytotoxicity assay kit (Promega, Madison, WI, USA) according to the manufacturer's instructions. Cytotoxicity was calculated with the formula: % cytotoxicity = 100 × (experimental LDH release/ maximum LDH release), where maximum LDH release is after lysis solution addition (Triton X-100). Relative amounts of LDH release were measured (absorbance at 490 nm) using FlexStation 3 microplate reader (Molecular Device, Wokingham, UK). […]
Data were expressed as means ± SD. Statistical significance was determined using unpaired t-test, one-way ANOVA, and/or two-way ANOVA for direct comparisons between single groups. […]

In the case of temporin B, the IC50 (HSV-1 [1]) is listed as 93 µg/mL.

For CC[C@H](C)[C@H](NC(=O)COCCOCCNC(=O)[C@H](CCCNC(=N)N)NC(=O)[C@H](CC(C)C)NC(=O)[C@H](Cc1ccccc1)NC(=O)CNC(=O)[C@@H](C)NC(=O)[C@@H](N)Cc1ccc(O)cc1)C(=O)N[C@@H](CCCCN)C(=O)N[C@@H](CCCCN)C(=O)N[C@H](C(=O)N[C@@H](CC(C)C)C(=O)N[C@@H](CO)C(=O)N[C@@H](CCCCN)C(=O)N[C@H](C(=O)N[C@@H](CCCCN)C(=O)N[C@@H](CCCCN)C(=O)N[C@@H](CC(C)C)C(=O)N[C@@H](CC(C)C)C(=O)N[C@@H](CCCCN)C(N)=O)[C@@H](C)CC)[C@@H](C)CC [DAL-PEG-LK6] (H-Y[dA]GFLR[AEEA]IKKILSKIKKLLK-NH2), the IC50 (HSV-1 [2]) was 3.699 µg/mL (≈ 1.54 µM) and the CC50 at 48 h (in vitro) was 33.8 µg/mL (≈ 14.1 µM).

In the case of “RKKRRQRRR-O2Oc-IKKILSKIKKLLK-NH2 [CPP2-PEG-LK6, conjugate of cationic cell-penetrating peptide (HIV-1 TAT49–57 fragment) with LK6 via PEG linker]”, the “reduction in viral yield in the qPCR test” value (HSV-1 [3]; Figure 1C, Vero E6 (DAL-PEG-LK6 and CPP1-PEG-LK6 25 μg/ml; CPP2-PEG-LK6 10 μg/ml) and TIGKs cells (15 μg/ml)) is reported as 1 log, the “reduction of virus replication in titration assay” value (HSV-1 [3]; Figure 1D, both cell models (Vero E6, TIGKs), normalized to untreated control) is reported as 97% and the Rt [4] is reported as 20.094.

In the case of CC[C@H](C)[C@H](NC(=O)COCCOCCNC(=O)[C@H](CCCNC(=N)N)NC(=O)[C@H](CC(C)C)NC(=O)[C@H](Cc1ccccc1)NC(=O)CNC(=O)[C@@H](C)NC(=O)[C@@H](N)Cc1ccc(O)cc1)C(=O)N[C@@H](CCCCN)C(=O)N[C@@H](CCCCN)C(=O)N[C@H](C(=O)N[C@@H](CC(C)C)C(=O)N[C@@H](CO)C(=O)N[C@H](CCCCN)C(=O)N[C@H](C(=O)N[C@@H](CCCCN)C(=O)N[C@@H](CCCCN)C(=O)N[C@@H](CC(C)C)C(=O)N[C@@H](CC(C)C)C(N)=O)[C@@H](C)CC)[C@@H](C)CC [DAL-PEG-DK5] (H-Y[dA]GFLR[AEEA]IKKILS[dK]IKKLL-NH2), the “morphology of epithelial cells in OTG (H&E)” value (HSV-1 [5]) is reported as “no changes in the morphology of epithelial cells”.
